Columns and labels:
serum cholesterol = conditions: several animal species and humans, literature; cited from earlier work
[1] = system: cholesterol biosynthesis (rat liver homogenate); test: Inhibition of cholesterol biosynthesis: incorporation of radiolabelled acetic acid into cholesterol in rat liver homogenate; type: biochemical, Hannover Wistar male rats; conditions: 2 h at 37° C.
Excerpt: The cholesterol-biosynthesis-inhibiting effect of the compounds according to the invention is illustrated by the example of 9 α-hydroxy-3-oxo-4,24(25)-stigmastadien-26-oic acid (I, wherein M stands for hydrogen). The inhibitory effect of this compound was compared with that of 3β-hydroxy-5α-cholest-8(14)-en-15-one (Colestolone) by the method of A. Endo and co-workers [Eur. J. Biochem. 77, 31 (1977); Biochem. Biophys. Acta 486, 71 (1977)] studying in rat liver homogenate the incorporation of radiolabelled acetic acid into cholesterol.
Hannover Wistar male rats weighing 50-60 g were used for the experiment. Before the experiments the animals were fed for a week with rat chew enriched with 5% cholestyramine, in a reversed light cycle (light from 4 p.m. to 4 a.m., and dark from 4 a.m. to 4 p.m.). The food and water were available ad libitum.
The animals were decapitated on the day of the experiment, Livers were immersed in ice cold Krebs/Ringer bicarbonate buffer (pH 7.4) and cut into small pieces. Using a tissue homogenizer in a gentle mode of operation we prepared a crude liver homogenate of which a portion equivalent to 100 mg of wet liver was weighed into glass-stoppered tubes. The operations were carried out under constant cooling. The incubation mixture included the liver homogenate, the Krebs/Ringer bicarbonate buffer, the sodium-(1-^14 C)acetate (supplied by IZINTA; specific activity: 14.86 MBq/mg) and the (^3 H)cholesterol oleate (supplied by Du Pont; specific activity: 3067 GBq/mmole). The steroids inhibiting cholesterol biosynthesis were added to the incubation mixture in an alcoholic solution containing albumin, as described by G. J. Schroepfer and co-workers [J. Biol. Chem. 24, 8975 (1977)]. The final volume of the incubation mixture was 2.0 ml. Incubation went on for 2 hours in a water bath of 37° C., then 2 ml of alcohol containing 15% (w/v) of KOH were added to the mixture, which was then kept at 70°-75° C. for further 2 hours. The lipids were extracted from the alkaline mixture by petroleum ether. After evaporation of the solvent in nitrogen stream the dry residue was dissolved in a mixture of acetone and ethanol, then the cholesterol was precipitated by a solution of digitonin. The precipitate was centrifuged and dissolved in scintillation cocktail. The activity was measured for 5 minutes using a Hitachi scintillation spectrometer.

Structure (SMILES) | serum cholesterol-lowering effect (serum cholesterol) | Inhibition, % ([1]; concentration 2.5 μM) | Inhibition, % ([1]; concentration 10.0 μM)
CC(C)CCC[C@@H](C)[C@H]1CC(=O)C2=C3CC[C@H]4C[C@@H](O)CC[C@]4(C)[C@H]3CC[C@@]21C [3β-Hydroxy-5α-cholest-8(14)-en-15-one, 3β-hydroxy-5α-cholest-8(14)-en-15-one] | significant serum cholesterol-lowering effect | 16.6% | 55.0%
CCC(CC[C@@H](C)[C@H]1CC[C@H]2[C@@H]3CCC4=CC(=O)CC[C@]4(C)[C@@]3(O)CC[C@]12C)=C(C)C(=O)O [9α-hydroxy-3-oxo-4,24(25)-stigmastadien-26-oic acid] | – | 65.3% | 86.3%

Reference: US5112815A, “9α-hydroxy-3-oxo-4,24(25)-stigmastadien-26-oic acid derivatives, a process for preparing same and pharmaceutical compositions containing same” (Richer Gedeon Vegyeszet, priority 1989, dated 1992)
